From patent publication US20060292639A1, “Splice variant of the vanilloid receptor VR1A” (Adolor Corporation, priority 2004, published 2006)
Where two headings read alike, the source gives them in different places.

Columns and labels:
human DRG VR1 = biological target: T1, human DRG VR1 (Homo sapiens, UniProt Q8NER1, I585V/K332R/M315I); experiment: Ca2+ influx assay, stable cell line expressing VR1; type: cell-based; details: for IC50: VR1 stable cell line, N=4, read-out: IC50 Capsazepine
T1 construct: The two primers were designed to amplify the entire coding region; expressed in transfected cells; CHO is stated only for the VR1A construct
Protocol: (§1) B. Generation of a stable cell line: The VR1A construct was transfected into 80-90% confluent cultures of CHO cells grown in F12 media containing 10% fetal bovine serum (Hyclone Laboratories). After 48 hours, cells were transferred to selection medium (growth medium containing 1 mg/ml of G418) and 15 days later individual G418 resistant foci were isolated and expanded. In order to identify a functional cell line, the expanded cells were plated in a 96 well plate and grown to confluency. […] Functional clones were retested, expanded and cryopreserved.
(§2) C. Calcium influx assay: The stable cell lines, expressing human DRG VR1 and human pancreas VR1A, were seeded the day before the assay at 40,000 cells/well density in 96 well black clear bottom assay plates (Corning Inc., Corning, N.Y.). On the day of the assay, the medium of cell plates was changed to 0.2 ml of 1× Hanks' balanced salt solution (Invitrogen, Carlsbad, Calif.) containing 20 mM HEPES, pH 7.4, 1.3 mM freshly made probenecid and 3 μM Fluo-3AM (Molecular Devices, Sunnyvale, Calif.). The cell plates were incubated at 37° C. for one hour and left at room temperature for 30 minutes. Serial dilutions of agonist compounds, starting at 100 μM, were set up in 96 well plates and subsequently used for the analysis. Both plates were loaded to the FlexStation in order to run the assay. The excitation wavelength was 485 nM and the emission wavelength was 583 nM.

human pancreas VR1A = biological target: T2, human pancreas VR1A (Homo sapiens, UniProt Q8NER1, I585V/M315I/M552V); experiment: Ca2+ influx assay, stable cell line expressing VR1A; type: cell-based
T2 construct: VR1A codes for a VR1-like protein, 837 amino acids long, with 148 unique residues at the N-terminal end; expressed in transfected cells; host or cells: CHO
Protocol: as §1, §2

T2 sequence (Q8NER1 1-837 isoform Q8NER1-3 M313I/M550V/I583V): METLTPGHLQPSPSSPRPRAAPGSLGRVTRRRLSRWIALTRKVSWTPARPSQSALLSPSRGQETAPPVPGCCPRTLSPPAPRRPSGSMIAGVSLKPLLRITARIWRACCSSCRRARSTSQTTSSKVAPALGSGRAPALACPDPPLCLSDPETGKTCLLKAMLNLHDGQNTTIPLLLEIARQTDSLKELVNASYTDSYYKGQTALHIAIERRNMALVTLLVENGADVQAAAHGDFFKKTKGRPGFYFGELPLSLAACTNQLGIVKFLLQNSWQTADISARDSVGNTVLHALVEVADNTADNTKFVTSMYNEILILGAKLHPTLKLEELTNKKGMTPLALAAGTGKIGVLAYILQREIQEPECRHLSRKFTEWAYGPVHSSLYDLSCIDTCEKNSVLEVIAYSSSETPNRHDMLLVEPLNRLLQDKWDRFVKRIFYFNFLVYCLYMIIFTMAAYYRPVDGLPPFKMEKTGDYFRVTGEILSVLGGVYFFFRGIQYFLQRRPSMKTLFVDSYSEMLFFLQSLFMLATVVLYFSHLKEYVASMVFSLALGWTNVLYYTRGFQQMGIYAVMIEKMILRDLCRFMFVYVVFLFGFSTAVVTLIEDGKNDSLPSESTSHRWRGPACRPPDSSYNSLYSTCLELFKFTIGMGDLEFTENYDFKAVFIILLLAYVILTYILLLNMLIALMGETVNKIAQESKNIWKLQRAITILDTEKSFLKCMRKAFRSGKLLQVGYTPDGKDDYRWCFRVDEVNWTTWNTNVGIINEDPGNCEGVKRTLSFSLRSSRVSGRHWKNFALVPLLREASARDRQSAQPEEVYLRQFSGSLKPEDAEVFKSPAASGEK
T1 sequence (Q8NER1 whole entry M315I/K332R/I585V): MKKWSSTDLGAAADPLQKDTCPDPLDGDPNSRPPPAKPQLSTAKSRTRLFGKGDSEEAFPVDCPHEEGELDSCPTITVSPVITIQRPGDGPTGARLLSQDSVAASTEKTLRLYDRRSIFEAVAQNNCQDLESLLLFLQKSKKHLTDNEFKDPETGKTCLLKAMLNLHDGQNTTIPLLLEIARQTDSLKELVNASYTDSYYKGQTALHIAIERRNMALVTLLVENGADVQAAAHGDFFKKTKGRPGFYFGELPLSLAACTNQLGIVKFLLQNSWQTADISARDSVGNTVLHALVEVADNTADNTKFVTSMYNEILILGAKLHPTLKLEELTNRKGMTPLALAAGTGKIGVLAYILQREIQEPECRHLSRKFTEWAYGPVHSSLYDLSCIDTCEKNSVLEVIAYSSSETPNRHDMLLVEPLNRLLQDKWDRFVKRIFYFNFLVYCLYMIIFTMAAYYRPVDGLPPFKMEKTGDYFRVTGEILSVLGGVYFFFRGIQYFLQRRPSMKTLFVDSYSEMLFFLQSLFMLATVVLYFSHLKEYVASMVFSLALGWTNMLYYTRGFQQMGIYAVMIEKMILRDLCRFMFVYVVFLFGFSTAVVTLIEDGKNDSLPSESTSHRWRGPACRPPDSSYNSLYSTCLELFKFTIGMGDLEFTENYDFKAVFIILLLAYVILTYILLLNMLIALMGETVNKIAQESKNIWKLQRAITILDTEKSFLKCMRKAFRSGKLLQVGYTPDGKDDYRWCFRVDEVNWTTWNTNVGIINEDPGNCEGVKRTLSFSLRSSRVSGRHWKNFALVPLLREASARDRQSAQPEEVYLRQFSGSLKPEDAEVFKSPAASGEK

Structure (SMILES) | IC50 (human DRG VR1; E-capsaicin as agonist) | IC50 (human DRG VR1; RTX as agonist) | IC50 (human pancreas VR1A; IC50 Capsazepine, VR1A stable cell line, RTX as agonist, N=4) | IC50 (human pancreas VR1A; read-out: IC50 Capsazepine) | fold lower IC50 value with RTX as an agonist compared to capsaicin as an agonist (human pancreas VR1A; text does not say whether VR1 or VR1A is meant) | EC50 (human DRG VR1) | EC50 (human pancreas VR1A)
Oc1cc2c(cc1O)CN(C(=S)NCCc1ccc(Cl)cc1)CCC2 [Capsazepine, capsazepine] | 194 ± 0.06 nM | 140 ± 0.8 nM | 25 ± 0.26 nM | 60 ± 0.1 nM | approximately 5 fold |  | 
C=C(C)[C@]12C[C@@H](C)[C@@]34O[C@](Cc5ccccc5)(O[C@@H]1[C@@H]3C=C(COC(=O)Cc1ccc(O)c(OC)c1)C[C@]1(O)C(=O)C(C)=C[C@@H]41)O2 [RTX, resiniferatoxin] |  |  |  |  |  | 1.6 ± 0.17 nM | 5 ± 0.08 nM
